Converted amounts (≈) assume the structure as drawn. Where two headings read alike, the source gives them in different places.
Tests used:
[1] = Cytotoxicity, CCK-8 method; type: cell-based; settings: human
Method: (§1) Cytotoxic activity was evaluated using the human lung adenocarcinoma cell line H1975 and human hepatocellular carcinoma cell line HepG-2, using the CCK-8 method as described in our previous study. Briefly, each of the test compounds was dissolved in DMSO and further diluted to give final concentrations of 80, 40, 20, 10, 5, 2.5, and 1.25 μM, respectively. H1975 cells or HepG-2 cells (5 × 10^3 […]) were seeded in 96-well plates and treated with compounds at the indicated concentration for 24 hours and then 10 μL CCK-8 reagent was added to each well. The plates were incubated at 37 °C for another 4 hours. Finally, the optical density was measured at a wavelength of 450 nm with a Bio-Rad microplate reader. Dose–response curves were generated, and the IC50 values were calculated from the linear portion of log dose–response curves.

[2] = system: brine shrimps; test: Brine shrimp lethality bioassay; type: in vivo; settings: Table 3
Description: The methods were the same as those used in our previous studies.

[3] = system: Escherichia coli ATCC 25922; test: Antibacterial assay, micro broth dilution; type: cell-based; settings: ATCC25922, micro broth dilution, LB medium, 24 hours at 37 °C, read-out: Antibacterial Activity (MIC) E. coli
Method: (§2) The micro broth dilution method was used to evaluate the antibacterial activities of compounds 1–19 against the growth of eight common pathogens: Bacillus subtilis BS01, Micrococcus luteus, Escherichia coli ATCC 25922, Staphylococcus aureus ATCC 6538, S. aureus MRSA, Streptococcus agalactiae ATCC 13813, S. iniae, and Pseudomonas aeruginosa ATCC 9027 in 96-well polystyrene plates. Vancomycin and ciprofloxacin were used as positive controls. Briefly, wells containing 100 μL bacteria dilutions (OD600 = 0.01) in Luria–Bertani (LB) medium were supplemented with different concentrations of 1–19 (80, 40, 20, 10, 5, 2.5, 1.25, and 0.625 μg/mL), vancomycin, and ciprofloxacin (40, 20, 10, 5, 2.5, 1.25, 0.625, and 0.3125 μg/mL), respectively. The MICs were determined after 24 hours’ incubation at 37 °C with the tested compounds.

[4] = system: Micrococcus luteus; test: Antibacterial assay, micro broth dilution; type: cell-based; settings: read-out: Antibacterial Activity (MIC) M. luteus
Method: as §2

[5] = system: Bacillus subtilis BS01; test: Antibacterial assay, micro broth dilution; type: cell-based; settings: BS01, micro broth dilution, LB medium, 24 hours at 37 °C, read-out: Antibacterial Activity (MIC) B. subtilis
Method: as §2

[6] = system: Pseudomonas aeruginosa ATCC 9027; test: Antibacterial assay, micro broth dilution; type: cell-based; settings: ATCC9027, micro broth dilution, LB medium, 24 hours at 37 °C, read-out: Antibacterial Activity (MIC) P. aeruginosa
Method: as §2

[7] = system: Streptococcus agalactiae ATCC 13813; test: Antibacterial assay, micro broth dilution; type: cell-based; settings: ATCC13813, micro broth dilution, LB medium, 24 hours at 37 °C, read-out: Antibacterial Activity (MIC) S. agalactiae
Method: as §2

[8] = system: Staphylococcus aureus ATCC 6538; test: Antibacterial assay, micro broth dilution; type: cell-based; settings: ATCC6538, micro broth dilution, LB medium, 24 hours at 37 °C, read-out: Antibacterial Activity (MIC) S. aureus
Method: as §2

[9] = system: S. aureus MRSA; test: Antibacterial assay, micro broth dilution; type: cell-based; settings: Staphylococcus aureus, read-out: Antibacterial Activity (MIC) MRSA
Method: as §2

[10] = system: S. iniae; test: Antibacterial assay, micro broth dilution; type: cell-based; settings: Streptococcus iniae; micro broth dilution, LB medium, 24 hours at 37 °C; read-out: Antibacterial Activity (MIC) S. iniae
Method: as §2

[11] = Cytotoxicity, CCK-8 method; type: cell-based; settings: human; remark: listed apart in the source
Method: as §1

[12] = micro broth dilution, LB medium, 24 hours at 37 °C

SMILES | IC50 at 24 h [1] [µM] | Toxicity (TC50) Brine Shrimp [2] [µg/mL] | MIC [3] [µg/mL] | MIC [4, 12] [µg/mL] | MIC [5] [µg/mL] | MIC [6] [µg/mL] | MIC [7] [µg/mL] | MIC [8] [µg/mL] | MIC [9, 12] [µg/mL] | MIC [10] [µg/mL] | IC50 at 24 h [11] [µM] | IC50 at 24 h ([1]; H1975 cells (lung adenocarcinoma cell line), H1975 cells, CCK-8, 24 hours treatment, read-out: Cytotoxicity (IC50) against H1975) [µM] | IC50 at 24 h ([11]; HepG-2 cells (hepatocellular carcinoma cell line), HepG-2 cells, CCK-8, 24 hours treatment, read-out: Cytotoxicity (IC50) against HepG-2) [µM] | MIC ([4]; 24 h) [µg/mL] | MIC ([9]; 24 h) [µg/mL]
CS[C@@]12CC3=COC=C[C@H](O)[C@H]3N1C(=O)[C@]1(SC)CC3=COC=C[C@H](O)[C@H]3N1C2=O [Compound 9, bisdethiobis(methylsulfanyl)deacetylaranotin] | > 80 | >80 | > 80 | > 80 | > 80 | > 80 | > 80 | > 80 | > 80 | > 80 | > 80 | – | – | – | –
CS[C@@]12CC3=COC=C[C@H](OC(C)=O)[C@H]3N1C(=O)[C@]1(SC)CC3=COC=C[C@H](O)[C@H]3N1C2=O [Compound 10, bisdethiobis(methylsulfanyl)-aranotin] | > 80 | >80 | > 80 | > 80 | > 80 | > 80 | > 80 | > 80 | > 80 | > 80 | > 80 | – | – | – | –
CS[C@@]12CC3=CC=C[C@H](OC(C)=O)[C@H]3N1C(=O)[C@]1(SC)CC3=COC=C[C@H](O)[C@H]3N1C2=O [Compound 11, 8-acetyl-bisdethiobis(methylsulfanyl)apoaranotin] | 69.3 | >80 | > 80 | > 80 | 60 (≈ 126 µM) | > 80 | > 80 | > 80 | > 80 | 50 (≈ 105 µM) | > 80 | – | – | – | –
CS[C@@]12CC3=CC=C[C@H](OC(C)=O)[C@H]3N1C(=O)[C@]1(SC)CC3=COC=C[C@H](OC(C)=O)[C@H]3N1C2=O [Compound 12, bisdethiobis(methylsulfanyl)acetylapoaranotin] | > 80 | 50 | > 80 | 50 (≈ 96.4 µM) | > 80 | > 80 | 50 (≈ 96.4 µM) | > 80 | > 80 | > 80 | > 80 | – | – | – | –
CS[C@@]12CC3=COC=C[C@H](OC(C)=O)[C@H]3N1C(=O)[C@]1(SC)CC3=CC=C[C@H](O)[C@H]3N1C2=O [Compound 13, bisdethiobis(methylsulfanyl)apoaranotin] | > 80 | – | > 80 | > 80 | > 80 | > 80 | > 80 | > 80 | > 80 | > 80 | > 80 | – | – | – | –
CS[C@@]12Cc3ccccc3N1C(=O)[C@]1(SC)CC3=COC=C[C@H](OC(C)=O)C3N1C2=O (some centres unmarked) [Compound 16, versicolor A] | 7.2 | – | > 80 | > 80 | 70 (≈ 153 µM) | > 80 | 70 (≈ 153 µM) | > 80 | > 80 | > 80 | > 80 | – | – | – | –
CS[C@@]12Cc3ccccc3N1C(=O)[C@]1(SC)CC3=COC=C[C@H](O)C3N1C2=O (some centres unmarked) [Compound 17, 12,12a-anhydro-desacetyl-bis-dethio-7a, 14a-di-(methylmercapto)-apoaranotin] | 35.2 | – | > 80 | > 80 | 80 (≈ 192 µM) | > 80 | 70 (≈ 168 µM) | > 80 | > 80 | 30 (≈ 72 µM) | > 80 | – | – | – | –
CS[C@@H]1NC(=O)[C@@](Cc2ccccc2)(SC)NC1=O [Compound 19, citriperazine B] | – | – | > 80 | 70 (≈ 236 µM) | 80 (≈ 270 µM) | > 80 | > 80 | > 80 | > 80 | > 80 | – | > 80 | > 80 | – | –
CN[C@H](CC(C)C)C(=O)N[C@H]1C(=O)N[C@@H](CC(N)=O)C(=O)N[C@H]2C(=O)N[C@H]3C(=O)N[C@H](C(=O)N[C@H](C(=O)O)c4cc(O)cc(O)c4-c4cc3ccc4O)[C@H](O)c3ccc(c(Cl)c3)Oc3cc2cc(c3O[C@@H]2O[C@H](CO)[C@@H](O)[C@H](O)[C@H]2O[C@H]2C[C@](C)(N)[C@H](O)[C@H](C)O2)Oc2ccc(cc2Cl)[C@H]1O [VMN, Vancomycin, reference compound] | – | – | – | – | – | – | – | – | – | – | – | – | – | 0.6 (≈ 0.414 µM) | 2.5 (≈ 1.73 µM)
